According to US20170095432A1, “TREPROSTINIL FORMULATIONS” (United Therapeutics Corporation, priority 2014, published 2017):

What was measured:
Format in all cases: physicochemical
[1] = Stability of treprostinil diethanolamine at ambient and refrigerated environments; details: 14 days
Method: (§1) Treprostinil diethanolamine was determined to be stable for 14 days at both ambient and refrigerated environments.

[2] = Binding of treprostinil diethanolamine to the 0.45-μm PTFE filters used in the assay
Method: A UV absorbance measurement was conducted with an approximate 0.1 mg/mL treprostinil diolamine solution with a Fluostar Omega BMG Labtech UV spectrophotometer from 220 nm to 350 nm to determine the λmax. Two standard curves were established with known concentrations of treprostinil at 228 nm and 270 nm. The time to achieve equilibrium between bound and unbound treprostinil to the IER was determined. One gram of resin was added to 100 mL of 10 mg/mL treprostinil solution. The suspension was stirred for four hours and 1 -mL samples were taken at 30, 60, 90, 120, 180, and 240 minutes. Each sample was filtered through a 0.45-μm PTFE filter, and the resulting solution was assayed by UV spectrophotometry for treprostinil concentration. Complexation experiments were conducted with known concentrations of treprostinil and one gram of resin at ratios of 1:0.5, 1:1, 1:2, and 1:4, resin:treprostinil (w/w). Two resins, PUROLITE™ and DUOLITE™, were evaluated separately. The amount of treprostinil complexed per gram of resin was calculated based on the difference between the initial and final treprostinil concentration. The percent loading efficiency was calculated based on the equation: (1-[unbound treprostinil]/[initial treprostinil]) * 100. […]
as §1

[3] = Complexation of treprostinil with cholestyramine ion-exchange resins (PUROLITE, DUOLITE); unbound drug assayed by UV at 270 nm
Method: A UV absorbance measurement was conducted with an approximate 0.1 mg/mL treprostinil diolamine solution with a Fluostar Omega BMG Labtech UV spectrophotometer from 220 nm to 350 nm to determine the λmax. Two standard curves were established with known concentrations of treprostinil at 228 nm and 270 nm. The time to achieve equilibrium between bound and unbound treprostinil to the IER was determined. One gram of resin was added to 100 mL of 10 mg/mL treprostinil solution. The suspension was stirred for four hours and 1 -mL samples were taken at 30, 60, 90, 120, 180, and 240 minutes. Each sample was filtered through a 0.45-μm PTFE filter, and the resulting solution was assayed by UV spectrophotometry for treprostinil concentration. Complexation experiments were conducted with known concentrations of treprostinil and one gram of resin at ratios of 1:0.5, 1:1, 1:2, and 1:4, resin:treprostinil (w/w). Two resins, PUROLITE™ and DUOLITE™, were evaluated separately. The amount of treprostinil complexed per gram of resin was calculated based on the difference between the initial and final treprostinil concentration. The percent loading efficiency was calculated based on the equation: (1-[unbound treprostinil]/[initial treprostinil]) * 100. Photographs were taken for each resin before and after complexation with treprostinil using a Leica DM IL LED light microscope and Leica DMC2900 microscope camera.
FIGS. 1-6 present the results of experiments. […] FIGS. 2A and 2B show calibration curves for determining a concentration of unbound treprostinil (diethanolamine) based on treprostinil absorbance at 228 nm (2A) and 270 nm (2B). The 270 nm curve was used to calculate all the concentrations in the complexation experiments.

| SMILES | stability ([1]; ambient environment) | stability ([1]; refrigerated environment) | binding effect with PTFE filters [2] | loading efficiency (drug bound to the resin) ([3]; lower concentrations of treprostinil diethanolamine) | maximum amount of treprostinil bound ([3]; plateau with increasing concentration of treprostinil diethanolamine, resin:treprostinil ratios 1:0.5 to 1:4 (w/w)) | time to equilibrium between bound and unbound treprostinil to the resins ([3]; stirring, 1 g resin in 100 mL of 10 mg/mL treprostinil solution) |
| --- | --- | --- | --- | --- | --- | --- |
| CCCCC[C@H](O)CC[C@@H]1[C@H]2Cc3cccc(OCC(=O)O)c3C[C@H]2C[C@H]1O.OCCNCCO [Treprostinil diethanolamine] | stable | stable | no binding effect | almost all drug was bound to the resin |  |  |
| CCCCC[C@H](O)CC[C@@H]1[C@H]2Cc3cccc(OCC(=O)O)c3C[C@H]2C[C@H]1O [treprostinil] |  |  |  |  | 1.6 g/g resin | After one hour of stirring |
